# Assays:
# Assay type in all cases: cell-based
# [1] = tested on: HCT-116; test: SRB growth assay, 2 days exposure, colon cancer
# Method: (§1) Arsenic trioxide (1 mg/ml, 10 mg/ampoule, manufactured by Taylor Pharmaceuticals, Decatur, Ill.) was tested at five concentrations each at 10-fold dilutions, i.e., 10^−5, 10^−6, 10^−7, 10^−8 and 10^−9 μg/ml.
# (§2) The in vitro tests were performed by incubating the test cells in the presence of the indicated concentration of arsenic trioxide under standard culture conditions for a designated period of time, which is followed by a sulforhodamine B (SRB) protein assay to estimate cell viability or growth. The cell lines are organized into subpanels according to the origin of the cell lines, e.g., leukemia, breast cancer, etc. A description of the cell lines and method of testing is described in Monk et al. (1997, Anticancer Drug Des. 12:533-41) and Weinstein et al., (1997, Science 275:343-9), which are incorporated herein in their entirety.
# (§3) The measurement of an effect is expressed in Percentage Growth (PG). The measured effect of the compound on a cell line is calculated according to one or the other of the following two expressions: If (Mean ODtest−Mean ODzero)≧0. then PG=100×(Mean ODtest−Mean ODzero)/(Mean ODctrl−Mean ODzero) If (Mean ODtest−Mean ODzero)<0. then PG=100×(Mean ODtest−Mean ODzero)/(Mean ODzero where: • Mean ODzero=the average of optical density measurements of SRB-derived color just before exposure of cells to the test compounds; • Mean ODtest=the average of optical density measurements of SRB-derived color after exposure of cells to the test compound for a designated period of time; and • Mean ODctrl=the average of optical density measurements of SRB-derived color after with no exposure of cells to the test compound for a designated period of time
# (§4) The first two columns describe the subpanel (e.g., leukemia) and cell line (e.g., CCRF-CEM) involved. The next two columns list the Mean ODzero and Mean ODctrl; the next five columns list the Mean ODtest for each of five different concentrations. Each concentration is expressed as the log10 (molar or μg/ml). The next five columns list the calculated PGs for each concentration. The response parameters GI50, TGI and LC50 are interpolated values representing the concentrations at which the PG is +50, 0, and −50, respectively. Sometimes these response parameters cannot be obtained by interpolation. If, for instance, all of the PGs in a given row exceed +50, then none of the three parameters can be obtained by interpolation. In such a case, the value given for each response parameter is the highest concentration tested and is preceded by a “>” sign. This practice is extended similarly to the other possible situations where a response parameter cannot be obtained by interpolation.
# (§5) In the first set, the cells from 56 different cancer cell lines were exposed to five concentrations of arsenic trioxide continuously for two days prior to performing the SRB assay. In the second set, the cells from 50 different cell lines (a subset of the first 56 cell lines, plus the renal cancer cell line 786-0) were exposed continuously for six days prior to the SRB assay.
# [2] = tested on: COLO 205; test: SRB growth assay, 2 days exposure, colon cancer
# Method: as §1, §2, §3, §4, §5
# [3] = tested on: HT29; test: SRB growth assay, 2 days exposure, colon cancer
# Method: as §1, §2, §3, §4, §5
# [4] = tested on: SW-620; test: SRB growth assay, 2 days exposure, colon cancer
# Method: as §1, §2, §3, §4, §5
# [5] = tested on: HCT-15; test: SRB growth assay, 2 days exposure, colon cancer
# Method: as §1, §2, §3, §4, §5
# [6] = tested on: 50 different cell lines; test: NCI cancer cell line panel, SRB assay, second set, 6 days exposure (whole panel, mean graph)
# Method: as §1, §2
# The measurement of an effect is expressed in Percentage Growth (PG). […]
# The first two columns describe the subpanel (e.g., leukemia) and cell line (e.g., CCRF-CEM) involved. […] Each concentration is expressed as the log10 (molar or μg/ml). The next five columns list the calculated PGs for each concentration. […]
# [7] = tested on: K-562; test: SRB growth assay, 2 days exposure, leukemia
# Method: as §1, §2, §3, §4, §5
# [8] = tested on: CCRF-CEM; test: SRB growth assay, 2 days exposure, leukemia
# Method: as §1, §2, §3, §4, §5
# [9] = tested on: SR; test: SRB growth assay, 2 days exposure, leukemia
# Method: as §1, §2, §3, §4, §5
# [10] = tested on: RPMI-8226; test: SRB growth assay, 2 days exposure, leukemia
# Method: as §1, §2, §3, §4, §5
# [11] = tested on: MOLT-4; test: SRB growth assay, 2 days exposure, leukemia
# Method: as §1, §2, §3, §4, §5
substance,measurement,setting,value
arsenic trioxide,TGI,[1],>0.0126 ng/mL
same,Percent Growth,[1]; log10 conc −4.9,30%
same,Percent Growth,[1]; log10 conc −5.9,86%
same,Percent Growth,[1]; log10 conc −6.9,93%
same,Percent Growth,[1]; log10 conc −7.9,93%
same,Percent Growth,[1]; log10 conc −8.9,95%
same,TGI,[2],>0.0126 ng/mL
same,Percent Growth,[2]; log10 conc −4.9,57%
same,Percent Growth,[2]; log10 conc −5.9,104%
same,Percent Growth,[2]; log10 conc −6.9,117%
same,Percent Growth,[2]; log10 conc −7.9,102%
same,Percent Growth,[2]; log10 conc −8.9,103%
same,TGI,[3],>0.0126 ng/mL
same,Percent Growth,[3]; log10 conc −4.9,15%
same,Percent Growth,[3]; log10 conc −5.9,80%
same,Percent Growth,[3]; log10 conc −6.9,100%
same,Percent Growth,[3]; log10 conc −7.9,104%
same,Percent Growth,[3]; log10 conc −8.9,112%
same,TGI,[4],>0.0126 ng/mL
same,Percent Growth,[4]; log10 conc −4.9,16%
same,Percent Growth,[4]; log10 conc −5.9,85%
same,Percent Growth,[4]; log10 conc −6.9,96%
same,Percent Growth,[4]; log10 conc −7.9,98%
same,Percent Growth,[4]; log10 conc −8.9,102%
same,TGI,[5],>0.0126 ng/mL
same,Percent Growth,[5]; log10 conc −4.9,20%
same,Percent Growth,[5]; log10 conc −5.9,93%
same,Percent Growth,[5]; log10 conc −6.9,104%
same,Percent Growth,[5]; log10 conc −7.9,100%
same,Percent Growth,[5]; log10 conc −8.9,113%
same,reducing cell growth,"[6]; second set of tests, all cell lines tested",effective in reducing cell growth against all the cell lines tested
same,sensitivity at the various principal response parameters,[6]; several melanoma cell lines,especially sensitive
same,TGI,[7],0.011 ng/mL
same,Percent Growth,[7]; log10 conc −4.9,−5%
same,Percent Growth,[7]; log10 conc −5.9,76%
same,Percent Growth,[7]; log10 conc −6.9,100%
same,Percent Growth,[7]; log10 conc −7.9,101%
same,Percent Growth,[7]; log10 conc −8.9,98%
same,TGI,[8],0.01 ng/mL
same,Percent Growth,[8]; log10 conc −4.9,−5%
same,Percent Growth,[8]; log10 conc −5.9,47%
same,Percent Growth,[8]; log10 conc −6.9,98%
same,Percent Growth,[8]; log10 conc −7.9,105%
same,Percent Growth,[8]; log10 conc −8.9,106%
same,TGI,[9],0.00585 ng/mL
same,Percent Growth,[9]; log10 conc −4.9,−30%
same,Percent Growth,[9]; log10 conc −5.9,60%
same,Percent Growth,[9]; log10 conc −6.9,100%
same,Percent Growth,[9]; log10 conc −7.9,89%
same,Percent Growth,[9]; log10 conc −8.9,99%
same,TGI,[10],0.00723 ng/mL
same,Percent Growth,[10]; log10 conc −4.9,−21%
same,Percent Growth,[10]; log10 conc −5.9,65%
same,Percent Growth,[10]; log10 conc −6.9,87%
same,Percent Growth,[10]; log10 conc −7.9,93%
same,Percent Growth,[10]; log10 conc −8.9,96%
same,TGI,[11],>0.0126 ng/mL
same,Percent Growth,[11]; log10 conc −4.9,4%
same,Percent Growth,[11]; log10 conc −5.9,77%
same,Percent Growth,[11]; log10 conc −6.9,105%
same,Percent Growth,[11]; log10 conc −7.9,105%
same,Percent Growth,[11]; log10 conc −8.9,109%

# — patent publication US6875451B2, “Compositions and methods for the treatment of primary and metastatic neoplastic diseases using arsenic compounds” (PolaRx Biopharmaceuticals Inc., priority 1997, dated 2005)
